From PMC12578816 (Scientific Reports, 2025)
Values after ≈ are worked out from the molar mass of the structure shown. “Also recorded” adds a separate entry of the source. Read-outs that look alike come from different tables or passages of the source. Each block holds one molecule with its values, some of them ahead of it.

Experiments:
α-glucosidase = details: cited from earlier work
[1] = tested on: α-glucosidase (from Saccharomyces cerevisiae); experiment: α-glucosidase inhibitory assay; format: biochemical
[2] = tested on: α-glucosidase (from Saccharomyces cerevisiae); experiment: α-glucosidase enzyme kinetic analysis; details: for inhibition mechanism: Lineweaver–Burk plots; for Ki: secondary plot of slopes

Molecule: O=c1c(-c2ccc(O)cc2)coc2cc(O)cc(O)c12 [genistein]
inhibition type (α-glucosidase): non-competitive inhibitor

Molecule: CCCCC/C=C\C/C=C\C/C=C\C/C=C\CCCC(=O)O [arachidonic acid]
inhibition mechanism (α-glucosidase; fatty acids): mixed-type

α-glucosidase inhibitory activity of isolated compounds (in words) [1]: no inhibitory activity
Molecule: CC(=O)c1nccc2c1[nH]c1ccccc12 [1-acetyl-β-carboline]

Molecule: CC/C=C\C/C=C\C/C=C\C/C=C\C/C=C\CCCC(=O)O [eicosapentaenoic acid]
inhibition mechanism (α-glucosidase; fatty acids): mixed-type

α-glucosidase inhibitory activity of isolated compounds (in words) [1]: no inhibitory activity
Molecule: O=Cc1ccc(O)cc1 [4-hydroxybenzaldehyde]

Molecule: CCCCC/C=C\C/C=C\CCCCCCCC(=O)O [linoleic acid]
inhibition mechanism (α-glucosidase; fatty acids): mixed-type

Ki [2]: 153 µM
Molecule: O=c1ccn([C@@H]2O[C@H](CO)[C@@H](O)[C@H]2O)c(=O)[nH]1 [Uridine]
α-glucosidase inhibitory activity of isolated compounds (in words) [1]: exhibited α-glucosidase inhibitory activity | inhibition mechanism [2]: competitive inhibitor; also recorded: competitive inhibition

Molecule: CCCCCCCC/C=C\CCCCCCCC(=O)O [oleic acid]
inhibition mechanism (α-glucosidase; fatty acids): mixed-type

Molecule: OC[C@H]1O[C@H](O[C@H]2[C@H](O)[C@@H](O)[C@@H](O[C@H]3[C@H](O)[C@@H](O)C(O)O[C@@H]3CO)O[C@@H]2CO)[C@H](O)[C@@H](O)[C@@H]1N[C@@H]1[C@H](O)[C@@H](O)[C@H](O)[C@]2(CO)O[C@H]12 (stereo partly drawn) [CKD-711]
IC50 (α-glucosidase): 2.5 µg/mL (≈ 3.69 µM)

inhibition mechanism [2]: mixed-type | Ki [2]: 90.9 µM
Molecule: Nc1ncnc2c1ncn2[C@@H]1O[C@H](CO)[C@@H](O)[C@H]1O [Adenosine]
α-glucosidase inhibitory activity of isolated compounds (in words) [1]: exhibited α-glucosidase inhibitory activity

Molecule: CC/C=C\C/C=C\C/C=C\CCCCCCCC(=O)O [α-linolenic acid]
inhibition mechanism (α-glucosidase; fatty acids): mixed-type

Molecule: OC[C@H]1O[C@H](O[C@H]2[C@H](O)[C@@H](O)[C@@H](O[C@H]3[C@H](O)[C@@H](O)[C@@H](O[C@H]4[C@H](O)[C@@H](O)[C@@H](O[C@H]5[C@H](O)[C@@H](O)C(O)O[C@@H]5CO)O[C@@H]4CO)O[C@@H]3CO)O[C@@H]2CO)[C@H](O)[C@@H](O)[C@@H]1N[C@@H]1[C@H](O)[C@@H](O)[C@H](O)[C@]2(CO)O[C@H]12 (stereo partly drawn) [CKD-711a]
IC50 (α-glucosidase): 6.5 µg/mL (≈ 6.49 µM)

Molecule: CCCCCCCCCCCCCCCC(=O)O [C16:0, Palmitic acid]
inhibition mechanism (α-glucosidase; fatty acids): mixed-type

Inhibition (%) ([1]; 10 mg/mL, n = 3, mean ± SD): 80.2 ± 0.7% | inhibition mechanism [2]: competitive inhibition
Molecule: C[C@H]1O[C@H](O[C@H]2[C@H](O)[C@@H](O)[C@@H](O[C@H]3[C@H](O)[C@@H](O)C(O)O[C@@H]3CO)O[C@@H]2CO)[C@H](O)[C@@H](O)[C@@H]1N[C@H]1C=C(CO)[C@@H](O)[C@H](O)[C@H]1O (stereo partly drawn) [Acarbose, reference compound]
inhibition mechanism (α-glucosidase): competitive inhibitor

Molecule: hydroxyglutaric acid [HGA]
IC50 (α-glucosidase; from Paenibacillus sp. TKU042): 220 µg/mL

Molecule: CCCCOC(=O)c1ccccc1C(=O)OCCCC [DBP, dibutyl phthalate]
α-glucosidase inhibitory activity of isolated compounds (in words) [1]: exhibited α-glucosidase inhibitory activity | inhibition mechanism [2]: mixed-type | Ki [2]: 516 µM
